Measurements published in PMC6379670, “An ultra-high affinity ligand of HIV-1 TAR reveals the RNA structure recognized by P-TEFb” (Nucleic Acids Research, 2018).
Non-standard residues stand in square brackets, D forms with d. Residues, ends and D or L forms follow the SMILES beside them. hArg = N=C(N)NCCCC[C@H](N)C(=O)O; Orn = NCCC[C@H](N)C(=O)O; Dab = NCC[C@H](N)C(=O)O

Molecular target: HIV-1 TAR RNA
Assay type: binding
Details: EMSA, 32P radiolabeled HIV-1 TAR RNA, [RNA]=75pM; Table 1; read-out: K D (HIV)
Method: Electro Mobility Shift Assays (EMSA) and 2-aminopurine fluorescence ([35]) were used to measure peptide binding. For EMSA, all RNAs were 5′-dephosphorylated ([25],[26]) and 5′-rephosphorylated using T4 Polynucleotide Kinase (PNK); shifts were performed and analyzed as previously described ([14]). The P-TEFb/Tat1:57/AFF4 binding assays were run as described ([11]), with protein samples generously donated by Drs Ursula Schulze-Gahmen and James Hurley, but binding buffers contained 250× fold excess yeast tRNA. JB181-bound samples were prepared with 3× excess labeled HIV-TAR prior to titration with the pre-formed P-TEFb/Tat1:57/AFF4 complex.
Fig. S1. a) HIV-1 TAR, BIV TAR and 7SK-SL4 RNAs have similar secondary structures, but the JB181 peptide discriminates between them. […]
tightly than BIV TAR (3.3 nM) or 7SK (>3 μM) RNAs. b) EMSA of representative JB-peptides with 32P radiolabeled HIV-1 TAR RNA ([RNA]=75pM). The peptide concentration increases from left to right, as indicated. The dissociation constant can be estimated by the peptide concentration where there is an approximate 1:1 ratio (as established by visual inspection) between free RNA and complex, since the RNA concentration is much lower than the KD.
(1 picture or pasted object on this page, not shown here)

| Compound | Kd [nM] |
| --- | --- |
| CC[C@H](C)[C@@H]1NC(=O)[C@H](CCCNC(=N)N)NC(=O)[C@H](CCCNC(=N)N)NC(=O)CNC(=O)[C@H](CCCCN)NC(=O)[C@H](CCCNC(=N)N)NC(=O)[C@H]([C@@H](C)O)NC(=O)[C@H](CCCNC(=N)N)NC(=O)[C@H](C(C)C)NC(=O)[C@H](CCCN)NC(=O)[C@@H]2CCCN2C(=O)[C@H]2CCCN2C(=O)[C@H]([C@@H](C)CC)NC(=O)[C@H](CCCNC(=N)N)NC1=O [JB58] (cyclo([Orn]VRTRKGRRIRI[dP]P)) | 3 ± 0.3 |
| CC[C@H](C)[C@@H]1NC(=O)[C@H](CCCNC(=N)N)NC(=O)[C@H](CCCNC(=N)N)NC(=O)CNC(=O)[C@H](CCCCN)NC(=O)[C@H](CCCNC(=N)N)NC(=O)[C@H]([C@@H](C)O)NC(=O)[C@H](CCCNC(=N)N)NC(=O)[C@H](C(C)C)NC(=O)[C@H](CCN)NC(=O)[C@@H]2CCCN2C(=O)[C@H]2CCCN2C(=O)[C@H](CC(C)C)NC(=O)[C@H](CCCNC(=N)N)NC1=O [JB185] (cyclo([Dab]VRTRKGRRIRL[dP]P)) | 0.5 ± 0.1 |
| CC[C@H](C)[C@@H]1NC(=O)[C@H](CCCNC(=N)N)NC(=O)[C@H](CCCNC(=N)N)NC(=O)CNC(=O)[C@H](CCCCN)NC(=O)[C@H](CCCNC(=N)N)NC(=O)[C@H]([C@@H](C)O)NC(=O)[C@H](CCCNC(=N)N)NC(=O)[C@H](C(C)C)NC(=O)[C@H](CCN)NC(=O)[C@@H]2CCCN2C(=O)[C@H]2CCCN2C(=O)[C@H]([C@@H](C)CC)NC(=O)[C@H](CCCNC(=N)N)NC1=O [JB59] (cyclo([Dab]VRTRKGRRIRI[dP]P)) | 1 ± 0.3 |

Same assay, conditions: EMSA; positional scanning library, Table S1; with tRNA; read-out: Kd (nM) w/tRNA

| Compound | Kd [nM] |
| --- | --- |
| CC[C@H](C)[C@@H]1NC(=O)[C@H](CCCNC(=N)N)NC(=O)[C@H](CCCNC(=N)N)NC(=O)CNC(=O)[C@H](CCCCN)NC(=O)[C@H](CCCNC(=N)N)NC(=O)[C@H]([C@@H](C)O)NC(=O)[C@H](CCCNC(=N)N)NC(=O)[C@H](C(C)C)NC(=O)[C@H](CCCNC(=N)N)NC(=O)[C@@H]2CCCN2C(=O)[C@H]2CCCN2C(=O)[C@H](C)NC(=O)[C@H](CCCNC(=N)N)NC1=O [JB-83] (cyclo(RVRTRKGRRIRA[dP]P)) | > 1000 |
| CC[C@H](C)[C@@H]1NC(=O)[C@H](CCCCN)NC(=O)[C@H](CCCNC(=N)N)NC(=O)CNC(=O)[C@H](CCCCN)NC(=O)[C@H](CCCNC(=N)N)NC(=O)[C@H]([C@@H](C)O)NC(=O)[C@H](CCCNC(=N)N)NC(=O)[C@H](C(C)C)NC(=O)[C@H](CCCNC(=N)N)NC(=O)[C@@H]2CCCN2C(=O)[C@H]2CCCN2C(=O)[C@H]([C@@H](C)CC)NC(=O)[C@H](CCCNC(=N)N)NC1=O [JB-71] (cyclo(RVRTRKGRKIRI[dP]P)) | > 1000 |
| CC[C@H](C)[C@@H]1NC(=O)[C@H](CCCNC(=N)N)NC(=O)[C@H](CCCNC(=N)N)NC(=O)CNC(=O)[C@H](CCCCN)NC(=O)[C@H](CCCNC(=N)N)NC(=O)[C@H]([C@@H](C)O)NC(=O)[C@H](CCCNC(=N)N)NC(=O)[C@H](C(C)C)NC(=O)[C@H](CCC(N)=O)NC(=O)[C@@H]2CCCN2C(=O)[C@H]2CCCN2C(=O)[C@H]([C@@H](C)CC)NC(=O)[C@H](CCCNC(=N)N)NC1=O [JB-61] (cyclo(QVRTRKGRRIRI[dP]P)) | > 1000 |
| CC[C@H](C)[C@@H]1NC(=O)[C@H](Cc2c[nH]c3ccccc23)NC(=O)[C@H](CCCNC(=N)N)NC(=O)CNC(=O)[C@H](CCCCN)NC(=O)[C@H](CCCNC(=N)N)NC(=O)[C@H]([C@@H](C)O)NC(=O)[C@H](CCCNC(=N)N)NC(=O)[C@H](C(C)C)NC(=O)[C@H](CCCNC(=N)N)NC(=O)[C@@H]2CCCN2C(=O)[C@H]2CCCN2C(=O)[C@H]([C@@H](C)CC)NC(=O)[C@H](CCCNC(=N)N)NC1=O [JB-74] (cyclo(RVRTRKGRWIRI[dP]P)) | > 1000 |
| CC[C@H](C)[C@@H]1NC(=O)[C@H](CCCNC(=N)N)NC(=O)[C@H](CCCCNC(=N)N)NC(=O)CNC(=O)[C@H](CCCCN)NC(=O)[C@H](CCCNC(=N)N)NC(=O)[C@H]([C@@H](C)O)NC(=O)[C@H](CCCNC(=N)N)NC(=O)[C@H](C(C)C)NC(=O)[C@H](CCCNC(=N)N)NC(=O)[C@@H]2CCCN2C(=O)[C@H]2CCCN2C(=O)[C@H]([C@@H](C)CC)NC(=O)[C@H](CCCNC(=N)N)NC1=O [KP-Y-04] (cyclo(RVRTRKG[hArg]RIRI[dP]P)) | 75 |
| CC[C@H](C)[C@@H]1NC(=O)[C@H](CCCNC(=N)N)NC(=O)[C@H](Cc2c[nH]c3ccccc23)NC(=O)CNC(=O)[C@H](CCCCN)NC(=O)[C@H](CCCNC(=N)N)NC(=O)[C@H]([C@@H](C)O)NC(=O)[C@H](CCCNC(=N)N)NC(=O)[C@H](C(C)C)NC(=O)[C@H](CCCNC(=N)N)NC(=O)[C@@H]2CCCN2C(=O)[C@H]2CCCN2C(=O)[C@H]([C@@H](C)CC)NC(=O)[C@H](CCCNC(=N)N)NC1=O [JB-70] (cyclo(RVRTRKGWRIRI[dP]P)) | > 1000 |
| CC[C@H](C)[C@@H]1NC(=O)[C@H](CCCNC(=N)N)NC(=O)[C@H](CCCNC(=N)N)NC(=O)CNC(=O)[C@H](CCCCN)NC(=O)[C@H](CCCNC(=N)N)NC(=O)[C@H]([C@@H](C)O)NC(=O)[C@H](CCCNC(=N)N)NC(=O)[C@H](CC(=O)O)NC(=O)[C@H](CCCNC(=N)N)NC(=O)[C@@H]2CCCN2C(=O)[C@H]2CCCN2C(=O)[C@H]([C@@H](C)CC)NC(=O)[C@H](CCCNC(=N)N)NC1=O [JB-64] (cyclo(RDRTRKGRRIRI[dP]P)) | > 1000 |
| CC[C@H](C)[C@@H]1NC(=O)[C@H](CCCCNC(=N)N)NC(=O)[C@H](CCCNC(=N)N)NC(=O)CNC(=O)[C@H](CCCCN)NC(=O)[C@H](CCCNC(=N)N)NC(=O)[C@H]([C@@H](C)O)NC(=O)[C@H](CCCNC(=N)N)NC(=O)[C@H](C(C)C)NC(=O)[C@H](CCCNC(=N)N)NC(=O)[C@@H]2CCCN2C(=O)[C@H]2CCCN2C(=O)[C@H]([C@@H](C)CC)NC(=O)[C@H](CCCNC(=N)N)NC1=O [KP-Y-05] (cyclo(RVRTRKGR[hArg]IRI[dP]P)) | 100 |
| CC[C@H](C)[C@@H]1NC(=O)[C@H](CCCNC(=N)N)NC(=O)[C@H](CCCNC(=N)N)NC(=O)CNC(=O)[C@H](CCCCN)NC(=O)[C@H](CCCNC(=N)N)NC(=O)[C@H]([C@@H](C)O)NC(=O)[C@H](CCCNC(=N)N)NC(=O)[C@H](C(C)C)NC(=O)[C@H](CCCNC(=N)N)NC(=O)[C@@H]2CCCN2C(=O)[C@H]2CCCN2C(=O)[C@H]([C@@H](C)CC)NC(=O)[C@H](Cc2c[nH]c3ccccc23)NC1=O [JB-79] (cyclo(RVRTRKGRRIWI[dP]P)) | > 1000 |
| CC[C@H](C)[C@@H]1NC(=O)[C@H](CCCNC(=N)N)NC(=O)[C@H](CCCNC(=N)N)NC(=O)CNC(=O)[C@H](CCCCN)NC(=O)[C@H](CCCNC(=N)N)NC(=O)[C@H]([C@@H](C)O)NC(=O)[C@H](CCCNC(=N)N)NC(=O)[C@H](C(C)C)NC(=O)[C@H](CCCNC(=N)N)NC(=O)[C@@H]2CCCN2C(=O)[C@H]2CCCN2C(=O)[C@H]([C@@H](C)CC)NC(=O)[C@H](Cc2ccc(O)cc2)NC1=O [JB-78] (cyclo(RVRTRKGRRIYI[dP]P)) | > 1000 |
| CC[C@H](C)[C@@H]1NC(=O)[C@H](CCCNC(=N)N)NC(=O)[C@H](CCCNC(=N)N)NC(=O)CNC(=O)[C@H](CCCCN)NC(=O)[C@H](Cc2ccc(O)cc2)NC(=O)[C@H]([C@@H](C)O)NC(=O)[C@H](CCCNC(=N)N)NC(=O)[C@H](C(C)C)NC(=O)[C@H](CCCNC(=N)N)NC(=O)[C@@H]2CCCN2C(=O)[C@H]2CCCN2C(=O)[C@H]([C@@H](C)CC)NC(=O)[C@H](CCCNC(=N)N)NC1=O [JB-68] (cyclo(RVRTYKGRRIRI[dP]P)) | > 1000 |
| CC[C@H](C)[C@@H]1NC(=O)[C@H](CCCNC(=N)N)NC(=O)[C@H](CCCNC(=N)N)NC(=O)CNC(=O)[C@H](CCCCN)NC(=O)[C@H](CCCNC(=N)N)NC(=O)[C@H]([C@@H](C)O)NC(=O)[C@H](CCCCNC(=N)N)NC(=O)[C@H](C(C)C)NC(=O)[C@H](CCCNC(=N)N)NC(=O)[C@@H]2CCCN2C(=O)[C@H]2CCCN2C(=O)[C@H]([C@@H](C)CC)NC(=O)[C@H](CCCNC(=N)N)NC1=O [KP-Y-02] (cyclo(RV[hArg]TRKGRRIRI[dP]P)) | 200 |
| CC[C@H](C)[C@@H]1NC(=O)[C@H](CCCNC(=N)N)NC(=O)[C@H](Cc2ccc(O)cc2)NC(=O)CNC(=O)[C@H](CCCCN)NC(=O)[C@H](CCCNC(=N)N)NC(=O)[C@H]([C@@H](C)O)NC(=O)[C@H](CCCNC(=N)N)NC(=O)[C@H](C(C)C)NC(=O)[C@H](CCCNC(=N)N)NC(=O)[C@@H]2CCCN2C(=O)[C@H]2CCCN2C(=O)[C@H]([C@@H](C)CC)NC(=O)[C@H](CCCNC(=N)N)NC1=O [JB-69] (cyclo(RVRTRKGYRIRI[dP]P)) | > 1000 |
| CC[C@H](C)[C@@H]1NC(=O)[C@H](CCCNC(=N)N)NC(=O)[C@H](CCCNC(=N)N)NC(=O)CNC(=O)[C@H](CCCCN)NC(=O)[C@H](CCCCNC(=N)N)NC(=O)[C@H]([C@@H](C)O)NC(=O)[C@H](CCCNC(=N)N)NC(=O)[C@H](C(C)C)NC(=O)[C@H](CCCNC(=N)N)NC(=O)[C@@H]2CCCN2C(=O)[C@H]2CCCN2C(=O)[C@H]([C@@H](C)CC)NC(=O)[C@H](CCCNC(=N)N)NC1=O [KP-Y-03] (cyclo(RVRT[hArg]KGRRIRI[dP]P)) | 200 |
| CC[C@H](C)[C@@H]1NC(=O)[C@H](CCCNC(=N)N)NC(=O)[C@H](CCCNC(=N)N)NC(=O)CNC(=O)[C@H](CCCCN)NC(=O)[C@H](CCCNC(=N)N)NC(=O)[C@H]([C@@H](C)O)NC(=O)[C@H](CCCNC(=N)N)NC(=O)[C@H](C(C)C)NC(=O)[C@H](CCCNC(=N)N)NC(=O)[C@@H]2CCCN2C(=O)[C@H]2CCCN2C(=O)[C@H]([C@@H](C)CC)NC(=O)[C@H](Cc2c[nH]cn2)NC1=O [JB-77] (cyclo(RVRTRKGRRIHI[dP]P)) | > 1000 |
